Measurements from PMC3804772, “Rational Design, Synthesis, and Biological Evaluation of Third Generation α-Noscapine Analogues as Potent Tubulin Binding Anti-Cancer Agents” (PLoS ONE, 2013).

Key:
[1] = system: human breast epithelial cell line (MCF-7); assay: In vitro cell proliferation assay (SRB), MCF-7; assay type: cell-based; details: MCF7, 72 h, mean ± S.D.
Protocol: (§1) The cell proliferation assay was performed in 96-well plates as described previously. A panel of four cancer cell lines of different tissues of origins, namely: human lung adenocarcinoma epithelial cell line (A549), human lymphoblast cell line (CEM), human cervix cell line (HeLa) and human breast epithelial cell line (MCF-7) were studied. These cell lines were obtained from the National Repository of Animal Cell Culture, National Centre for Cell Sciences, Pune (NCCS), India. Briefly, 2 x10^3 cells were seeded in each well and were incubated with gradient concentrations of 5a, 6a-j compounds for 72 h. The cells were then fixed with 50% trichloroacetic acid and stained with 0.4% sulforhodamine B (SRB) dissolved in 1% acetic acid. Cells were then washed with1% acetic acid to remove excess (unbound) SRB. The protein-bound SRB was dissolved with 10 mM Tris base and the absorbance at 564 nm was determined using a SPECTRAmax PLUS 384 microplate spectrophotometer.

[2] = system: human lymphoblast cell line (CEM); assay: In vitro cell proliferation assay (SRB), CEM; assay type: cell-based; details: 72 h, mean ± S.D.
Protocol: as §1

[3] = system: human lung adenocarcinoma epithelial cell line (A549); assay: In vitro cell proliferation assay (SRB), A549; assay type: cell-based; details: 72 h, mean ± S.D.
Protocol: as §1

[4] = system: human cervix cell line (HeLa); assay: In vitro cell proliferation assay (SRB), HeLa; assay type: cell-based; details: 72 h, mean ± S.D.
Protocol: as §1

[5] = system: MCF-7 cells; assay: Cell cycle analysis by flow cytometry (propidium iodide); assay type: cell-based, human; details: MCF-7, 25 µM
Protocol: The flow cytometric evaluation of the cell cycle status was performed as described previously. Briefly, cells (2 x 10^6) treated with the noscapinoids up to 72 h were centrifuged, washed twice with cold PBS, and fixed in 70% ethanol. Tubes containing the cell pellets were stored at 4 °C for minimum of 24 h. Cells were then centrifuged at 1000 x g for 10 min and the supernatant was discarded. The pellets were washed twice with 5 ml of PBS and then stained with 0.5 ml of propidium iodide (0.1% of Pl + 0.6% Triton-X in PBS) and 0.5 ml of RNase A (2 mg/ml) for 45 minutes in dark. Samples were then analyzed on a FACS Calibur flow cytometer ([…]).

[6] = molecular target: T1, tubulin (Bos taurus, UniProt P81947+Q6B856); assay: Tubulin binding assay (quenching of intrinsic tryptophan fluorescence); design: species or system bovine
T1 construct: Tubulin devoid of microtubule-associated proteins (MAPs) was purified from bovine brain; from tissue; host or cells: bovine brain
Protocol: Tubulin devoid of microtubule-associated proteins (MAPs) was purified from bovine brain by cycles of temperature-dependent polymerization and depolymerization as described previously followed by phosphocellulose chromatography. The concentration of the tubulin was determined by the method of Bradford using BSA as the standard. Purified tubulin was quickly frozen as drops in liquid nitrogen and stored at - 80 °C until used.
Noscapinoids quench the […] intrinsic tryptophan fluorescence of tubulin in a concentration-dependent fashion as described previously. This has allowed an easy method for measuring the tubulin-noscapinoids interactions. Briefly, the compounds 5a, 6a-j (0-200 µM) were incubated with 2 µM tubulin in PEM buffer (100 mM PIPES, pH 6.8, 3 mM MgSO4, and 1 mM EGTA) at 37 °C for 45 min. After incubation, the samples were excited at 295 nm. The relative intrinsic fluorescence intensity of the tubulin was then monitored in the absence and presence of the compound 5a, 6a-j using a Varian Cary Eclipse Fluorescence Spectrophotometer (Agilent Technologies, CA, USA). The emission readings were recorded at 335 nm. We used a 0.3 cm path-length cuvette to minimize the inner filter effects caused by the absorbance of the noscapinoids. In addition, the inner filter effects were corrected using a formula F corrected = F observed·antilog [(A ex + A em)/2], where A ex is the absorbance at the excitation wavelength and A em is the absorbance at the emission wavelength. The equilibrium dissociation constant (KD) was determined by the formula: 1/a = KD/[free ligand] + 1, where a is the fractional occupancy and [free ligand] is the concentration of free ligand. The fractional occupancy (a) was determined by the formula a = ΔF/ΔF max, where ΔF is the change in fluorescence intensity when tubulin and its ligand are in equilibrium and ΔF max is the value of maximum fluorescence change when tubulin is completely bound with its ligand. ΔF max was calculated by plotting 1/ΔF versus 1/ligand, using total ligand concentration as the first estimate of free ligand concentration. Three independent experiments were performed for each noscapinoid.

T1 sequence (Q6B856 whole entry): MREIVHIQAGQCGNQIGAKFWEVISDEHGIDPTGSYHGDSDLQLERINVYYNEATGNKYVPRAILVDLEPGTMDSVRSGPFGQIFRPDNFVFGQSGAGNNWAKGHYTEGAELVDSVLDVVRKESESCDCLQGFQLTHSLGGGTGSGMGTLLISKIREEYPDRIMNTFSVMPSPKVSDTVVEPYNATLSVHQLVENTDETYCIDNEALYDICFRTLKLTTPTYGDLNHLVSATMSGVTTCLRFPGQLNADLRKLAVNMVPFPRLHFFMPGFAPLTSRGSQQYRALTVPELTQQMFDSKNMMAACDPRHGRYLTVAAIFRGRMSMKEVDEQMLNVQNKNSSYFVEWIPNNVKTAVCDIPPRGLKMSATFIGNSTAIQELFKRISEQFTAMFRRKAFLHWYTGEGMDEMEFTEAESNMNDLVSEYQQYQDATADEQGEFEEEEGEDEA
T1 sequence (P81947 whole entry): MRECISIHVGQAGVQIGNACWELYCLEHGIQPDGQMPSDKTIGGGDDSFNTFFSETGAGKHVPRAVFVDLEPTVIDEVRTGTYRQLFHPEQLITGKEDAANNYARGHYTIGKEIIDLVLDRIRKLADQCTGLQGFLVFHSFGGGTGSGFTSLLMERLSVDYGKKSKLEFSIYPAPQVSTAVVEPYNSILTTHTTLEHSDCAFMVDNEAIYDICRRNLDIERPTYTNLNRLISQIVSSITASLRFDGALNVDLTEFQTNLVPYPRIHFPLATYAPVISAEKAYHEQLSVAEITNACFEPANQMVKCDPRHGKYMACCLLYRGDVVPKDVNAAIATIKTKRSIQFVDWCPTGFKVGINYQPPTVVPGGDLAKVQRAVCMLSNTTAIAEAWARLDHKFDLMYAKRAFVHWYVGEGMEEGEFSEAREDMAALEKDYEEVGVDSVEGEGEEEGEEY

| Compound | IC50 [1] [µM] | IC50 [2] [µM] | IC50 [3] [µM] | IC50 [4] [µM] | Cell cycle parameters % G0/G1, 24 hours [5] [%] | Cell cycle parameters % G2/M, 24 hours [5] [%] | Cell cycle parameters % S, 24 hours [5] [%] | Cell cycle parameters % Sub-G1, 24 hours [5] [%] | Cell cycle parameters % G0/G1, 72 hours [5] [%] | Cell cycle parameters % G2/M, 72 hours [5] [%] | Cell cycle parameters % S, 72 hours [5] [%] | Cell cycle parameters % Sub-G1, 72 hours [5] [%] | melting point [°C] | Kd ([6]; 2 µM tubulin, PEM buffer pH 6.8, 37 °C, 45 min, mean ± S.D.) [µM] | Experimental ΔGbind ([6]; calculated from KD, ΔGbind = RT ln KD, T = 298 K) [kcal/mol] |
| --- | --- | --- | --- | --- | --- | --- | --- | --- | --- | --- | --- | --- | --- | --- | --- |
| COc1ccc2c(c1OC)C(=O)O[C@@H]2[C@H]1c2c(cc3c(c2OC)OCO3)CCN1CC(C)=O [Compound 6h, (S)-6,7-dimethoxy-3-((R)-4-methoxy-6-(2-oxopropyl)-5,6,7,8-tetrahydro-[1,3]dioxolo[4,5-g]isoquinolin-5-yl) isobenzofuran-1(3H)-one] | 25.3 ± 1.2 | 6.9 ± 0.5 | 28 ± 1.5 | 15.8 ± 0.5 | 12.25 | 68.58 | 5.92 | 11.37 | 7.19 | 36.18 | 6.28 | 48.73 | 179 |  |  |
| COc1ccc2c(c1OC)C(=O)O[C@@H]2[C@H]1c2c(cc3c(c2OC)OCO3)CCN1Cc1ccccc1 [Compound 6a, (S)-3-((R)-6-benzyl-4-methoxy-5,6,7,8-tetrahydro-[1,3]dioxolo[4,5-g]isoquinolin-5-yl)-6,7-dimethoxyisobenzofuran-1(3H)-one] | 31.2 ± 1.5 | 8.3 ± 0.4 | 37.7 ± 1.8 | 19.4 ± 1.4 | 16.28 | 63.18 | 4.94 | 8.12 | 9.06 | 37.72 | 7.39 | 44.82 | 64 |  |  |
| COc1ccc(CN2CCc3cc4c(c(OC)c3[C@@H]2[C@H]2OC(=O)c3c2ccc(OC)c3OC)OCO4)cc1 [Compound 6d, (S)-6,7-dimethoxy-3-((R)-4-methoxy-6-(4-methoxybenzyl)-5,6,7,8-tetrahydro[1,3]dioxolo[4,5-g]isoquinolin-5-yl)isobenzofuran-1(3H)-one] | 28.7 ± 0.8 | 7.7 ± 0.3 | 33.5 ± 1.7 | 17.9 ± 0.9 | 22.73 | 59.41 | 4.62 | 7.27 | 8.29 | 36.18 | 7.83 | 45.38 | 66 |  |  |
| COc1cccc(CN2CCc3cc4c(c(OC)c3[C@@H]2[C@H]2OC(=O)c3c2ccc(OC)c3OC)OCO4)c1 [Compound 6g, (S)-6,7-dimethoxy-3-((R)-4-methoxy-6-(3-methoxybenzyl)-5,6,7,8-tetrahydro-[1,3]dioxolo[4,5-g]isoquinolin-5-yl) isobenzofuran-1(3H)-one] | 45.8 ± 2.2 | 11.9 ± 0.8 | 61.3 ± 3.1 | 28.3 ± 2.1 | 20.94 | 62.28 | 4.08 | 10.86 | 12.76 | 37.93 | 8.07 | 40.29 | 60 |  |  |
| COc1ccc2c(c1OC)C(=O)O[C@@H]2[C@@H]1NCCc2cc3c(c(OC)c21)OCO3 [Compound 5a, (S)-6,7-dimethoxy-3-((R)-4-methoxy-5,6,7,8-tetrahydro[1,3]dioxolo[4,5-g]isoquinolin-5-yl)isobenzofuran-1(3H)-one] | 33.6 ± 1.3 | 8.9 ± 0.6 | 41.6 ± 2.1 | 20.9 ± 1.8 | 13.47 | 66.37 | 4.08 | 8.46 | 10.74 | 39.25 | 7.08 | 41.57 |  | 68 ± 0.7 | -5.691 |
